Test results taken from US10787442B2, “Modulators of indoleamine 2,3-dioxygenase” (GLAXOSMITHKLINE INTELLECTUAL PROPERTY DEVELOPMENT LIMITED, priority 2016, dated 2020).

Test system: human peripheral blood mononuclear cells (PBMC)
Test: PBMC cytotoxicity assay (CellTiter-Glo)
Type: cell-based
Details: cytotoxicity in stimulated PBMC, recorded as pCC50
Method: Compounds of the present invention were tested via high-throughput cellular assays utilizing detection of kynurenine via mass spectrometry and cytotoxicity as end-points. […] Compounds with IDO1 inhibitory properties decreased the amount of kynurenine produced by the cells via the tryptophan catabolic pathway. Cellular toxicity due to the effect of compound treatment was measured using CellTiter-Glo® reagent (CTG) (Promega Corporation, Madison, Wis.), which is based on luminescent detection of ATP, an indicator of metabolically active cells.
In preparation for the assays, test compounds were serially diluted 3-fold in DMSO from a typical top concentration of 1 mM or 5 mM and plated at 0.5 μL in 384-well, polystyrene, clear bottom, tissue culture treated plates with lids (Greiner Bio-One, Kremsmünster, Austria) to generate 11-point dose response curves. Low control wells (0% kynurenine or 100% cytotoxicity) contained either 0.5 μL of DMSO in the presence of unstimulated (−IFN-γ/−LPS) PBMCs for the mass spectrometry assay or 0.5 μL of DMSO in the absence of cells for the cytotoxicity assay, and high control wells (100% kynurenine or 0% cytotoxicity) contained 0.5 μL of DMSO in the presence of stimulated (+IFN-γ/+LPS) PBMCs for both the mass spectrometry and cytotoxicity assays.
Frozen stocks of PBMCs were washed and recovered in RPMI 1640 medium (Thermo Fisher Scientific, Inc., Waltham, Mass.) supplemented with 10% v/v heat-inactivated fetal bovine serum (FBS) (Thermo Fisher Scientific, Inc., Waltham, Mass.), and 1× penicillin-streptomycin antibiotic solution (Thermo Fisher Scientific, Inc., Waltham, Mass.). The cells were diluted to 1,000,000 cells/mL in the supplemented RPMI 1640 medium. 50 μL of either the cell suspension, for the mass spectrometry assay, or medium alone, for the cytotoxicity assay, were added to the low control wells, on the previously prepared 384-well compound plates, resulting in 50,000 cells/well or 0 cells/well respectively. IFN-γ and LPS were added to the remaining cell suspension at final concentrations of 100 ng/ml and 50 ng/ml respectively, and 50 μL of the stimulated cells were added to all remaining wells on the 384-well compound plates. The plates, with lids, were then placed in a 37° C., 5% CO2 humidified incubator for 2 days.
Following incubation, the 384-well plates were removed from the incubator and allowed to equilibrate to room temperature for 30 minutes. For the cytotoxicity assay, CellTiter-Glo® was prepared according to the manufacturer's instructions, and 40 μL were added to each plate well. After a twenty minute incubation at room temperature, luminescence was read on an EnVision® Multilabel Reader (PerkinElmer Inc., Waltham, Mass.). For the mass spectrometry assay, 10 μL of supernatant from each well of the compound-treated plates were added to 40 μL of acetonitrile, containing 10 μM of an internal standard for normalization, in 384-well, polypropylene, V-bottom plates (Greiner Bio-One, Kremsmünster, Austria) to extract the organic analytes. Following centrifugation at 2000 rpm for 10 minutes, 10 μL from each well of the acetonitrile extraction plates were added to 90 μL of sterile, distilled H2O in 384-well, polypropylene, V-bottom plates for analysis of kynurenine and the internal standard on the RapidFire 300 (Agilent Technologies, Santa Clara, Calif.) and 4000 QTRAP MS (SCIEX, Framingham, Mass.). MS data were integrated using Agilent Technologies' RapidFire Integrator software, and data were normalized for analysis as a ratio of kynurenine to the internal standard.

| Structure (SMILES) | PBMC_TOX PXC50 |
| --- | --- |
| CC(C)CN(c1ncc([C@H](C)CC(=O)O)cc1Nc1ccc(Cl)cn1)C1CCC(F)(F)CC1 [Example 18, (R)-3-(5-((5-chloropyridin-2-yl)amino)-6-((4,4-difluorocyclohexyl) (isobutyl)amino)pyridin-3-yl)butanoic acid] | <5.0 |
| COCc1nnc(Nc2cc([C@H](C)CC(=O)O)cnc2N(CC(C)C)C2CCOCC2)s1 [Example 49, (3R)-3-(5-{[5-(methoxymethyl)-1,3,4-thiadiazol-2-yl]amino}-6-[(2-methylpropyl)(oxan-4-yl)amino]pyridin-3-yl)butanoic acid] | <5.0 |
| Cc1ccc(CC(=O)Nc2cc([C@H](C)CC(=O)O)cnc2N(CC(C)C)C2CC3(C2)CN(C(=O)OC(C)(C)C)C3)cc1 [Example 55, (3R)-3-[6-({2-[(tert-butoxy)carbonyl]-2-azaspiro[3.3]heptan-6-yl}(2-methylpropyl)amino)-5-[2-(4-methylphenyl)acetamido]pyridin-3-yl]butanoic acid] | <5.0 |
| Cc1nsc(Nc2cc([C@H](C)CC(=O)O)cnc2N(CC(C)C)C2CCCCC2)n1 [Example 16, (R)-3-(6-(cyclohexyl(isobutyl)amino)-5-((3-methyl-1,2,4-thiadiazol-5-yl)amino)pyridin-3-yl)butanoic acid] | <5.2 |
| CO[C@H]1CC[C@H](N(CC(C)C)c2ncc([C@H](C)CC(=O)O)cc2Nc2nc(C(F)(F)F)ns2)CC1 [Example 26, (R)-3-(6-(isobutyl((1r,4R)-4-methoxycyclohexyl)amino)-5-((3-(trifluoromethyl)-1,2,4-thiadiazol-5-yl)amino)pyridin-3-yl)butanoic acid] | <5.0 |
| CC(C)CN(c1ncc([C@H](C)CC(=O)O)cc1Nc1nc(C(C)C)ns1)C1CCCCC1 [Example 14, (R)-3-(6-(cyclohexyl(isobutyl)amino)-5-((3-isopropyl-1,2,4-thiadiazol-5-yl)amino)pyridin-3-yl)butanoic acid] | <5.0 |
| CC(C)CN(c1ncc([C@H](C)CC(=O)O)cc1Nc1ccc(Cl)nc1)C1CCC(F)(F)CC1 [Example 17, (R)-3-(5-((6-chloropyridin-3-yl)amino)-6-((4,4-difluorocyclohexyl)(isobutyl)amino)pyridin-3-yl)butanoic acid] | <5.0 |
| CC(C)CN(c1ncc([C@H](C)CC(=O)O)cc1Nc1nnc(C2CC2)s1)C1CCOCC1 [Example 38, (3R)-3-{5-[(5-cyclopropyl-1,3,4-thiadiazol-2-yl)amino]-6-[(2-methylpropyl)(oxan-4-yl)amino]pyridin-3-yl}butanoic acid] | <5.0 |
| Cc1nc(Nc2cc([C@H](C)CC(=O)O)cnc2N(CC(C)C)C2CCOCC2)ccc1Cl [Example 69, (3R)-3-{5-[(5-chloro-6-methylpyridin-2-yl)amino]-6-[(2-methylpropyl)(oxan-4-yl)amino]pyridin-3-yl}butanoic acid] | <5.0 |
| C[C@H](CC(=O)O)c1cnc(N(CC2CC2)C2CCOCC2)c(Nc2ccc(Cl)cn2)c1 [Example 9, (R)-3-(5-((5-chloropyridin-2-yl)amino)-6-((cyclopropylmethyl)(tetrahydro-2H-pyran-4-yl)amino)pyridin-3-yl)butanoic acid] | <5.0 |
| CC(C)CN(c1ncc([C@H](C)CC(=O)O)cc1Nc1nc(C(F)(F)F)ns1)C1CCCCC1 [Example 11, (R)-3-(6-(cyclohexyl(isobutyl)amino)-5-((3-(trifluoromethyl)-1,2,4-thiadiazol-5-yl)amino)pyridin-3-yl)butanoic acid] | <5.0 |
| CC(C)CN(CC(F)F)c1ncc([C@H](C)CC(=O)O)cc1Nc1ccc(Cl)cn1 [Example 71, (3R)-3-{5-[(5-chloropyridin-2-yl)amino]-6-[(2,2-difluoroethyl)(2-methylpropyl)amino]pyridin-3-yl}butanoic acid] | <5.0 |
| CC(C)CN(c1ncc([C@H](C)CC(=O)O)cc1Nc1nc(Cl)ns1)C1CCCCC1 [Example 12, (R)-3-(5-((3-chloro-1,2,4-thiadiazol-5-yl)amino)-6-(cyclohexyl(isobutyl)amino)pyridin-3-yl)butanoic acid] | <5.0 |
| CC(C)CN(c1ncc([C@H](C)CC(=O)O)cc1Nc1ccc(Cl)cn1)C1CCCCC1 [Example 13, (R)-3-(5-((5-chloropyridin-2-yl)amino)-6-(cyclohexyl(isobutyl)amino)pyridin-3-yl)butanoic acid] | <5.0 |
| CO[C@H]1CC[C@@H](N(CC(C)C)c2ncc([C@H](C)CC(=O)O)cc2Nc2nc(C(F)(F)F)ns2)CC1 [Example 22, (R)-3-(6-(isobutyl((1s,4S)-4-methoxycyclohexyl)amino)-5-((3-(trifluoromethyl)-1,2,4-thiadiazol-5-yl)amino)pyridin-3-yl) butanoic acid] | <5.4 |
| CC(C)CN(c1ncc([C@H](C)CC(=O)O)cc1Nc1ccc(Cl)cn1)C1CC(F)(F)C1 [Example 75, (3R)-3-{5-[(5-chloropyridin-2-yl)amino]-6-[(3,3-difluorocyclobutyl)(2-methylpropyl)amino]pyridin-3-yl}butanoic acid] | <5.0 |
| CC(C)CN(c1ncc([C@H](C)CC(=O)O)cc1Nc1ccc(C#N)nn1)C1CCOCC1 [Example 74, (3R)-3-{5-[(6-cyanopyridazin-3-yl)amino]-6-[(2-methylpropyl)(oxan-4-yl)amino]pyridin-3-yl}butanoic acid] | <5.0 |
| CC(C)CN(c1ncc([C@H](C)CC(=O)NO)cc1Nc1ccc(Cl)cn1)C1CCOCC1 [Example 78, (3R)-3-{5-[(5-chloropyridin-2-yl)amino]-6-[(2-methylpropyl)(oxan-4-yl)amino]pyridin-3-yl}-N-hydroxybutanamide] | <5.0 |
| CC(C)CN(c1ncc([C@H](C)CC(=O)O)cc1Nc1nc(C(C)C)ns1)C1CCOCC1 [Example 8] | <5.0 |
| CC(C)CN(CCC(F)(F)F)c1ncc([C@H](C)CC(=O)O)cc1Nc1ccc(Cl)cn1 [Example 76, (3R)-3-{5-[(5-chloropyridin-2-yl)amino]-6-[(2-methylpropyl)(3,3,3-trifluoropropyl)amino]pyridin-3-yl}butanoic acid] | <5.0 |
| CC(C)CN(CC(C)C)c1ncc([C@H](C)CC(=O)O)cc1Nc1nc(C(C)C)ns1 [Example 54, (3R)-3-{6-[bis(2-methylpropyl)amino]-5-{[3-(propan-2-yl)-1,2,4-thiadiazol-5-yl]amino}pyridin-3-yl}butanoic acid] | <5.0 |
| CO[C@H]1CC[C@H](N(CC(C)C)c2ncc([C@H](C)CC(=O)O)cc2Nc2ccc(Cl)cn2)CC1 [Example 27, (R)-3-(5-((5-chloropyridin-2-yl)amino)-6-(isobutyl((1r,4R)-4-methoxycyclohexyl)amino)pyridin-3-yl)butanoic acid] | <5.0 |
| COCc1nsc(Nc2cc([C@H](C)CC(=O)O)cnc2N(CC(C)C)C2CCCCC2)n1 [Example 15, (R)-3-(6-(cyclohexyl(isobutyl)amino)-5-((3-(methoxymethyl)-1,2,4-thiadiazol-5-yl)amino)pyridin-3-yl)butanoic acid] | <5.5 |
| CC(C)CN(c1ncc([C@H](C)CC(=O)NS(C)(=O)=O)cc1Nc1ccc(Cl)cn1)C1CCOCC1 [Example 79, (3R)-3-{5-[(5-chloropyridin-2-yl)amino]-6-[(2-methylpropyl)(oxan-4-yl)amino]pyridin-3-yl}-N-methanesulfonylbutanamide] | <5.0 |
